The target in the assay is T1, ROCKII (Homo sapiens, UniProt O75116).
T1 construct: gene ROCK2; ROCKII(5–554), constitutively active recombinant
As to the kind of experiment: […]-phosphoryl transfer kinase assay with LC20 peptide; steady-state kinetics. Type of assay: biochemical.

T1 sequence (O75116 5-554): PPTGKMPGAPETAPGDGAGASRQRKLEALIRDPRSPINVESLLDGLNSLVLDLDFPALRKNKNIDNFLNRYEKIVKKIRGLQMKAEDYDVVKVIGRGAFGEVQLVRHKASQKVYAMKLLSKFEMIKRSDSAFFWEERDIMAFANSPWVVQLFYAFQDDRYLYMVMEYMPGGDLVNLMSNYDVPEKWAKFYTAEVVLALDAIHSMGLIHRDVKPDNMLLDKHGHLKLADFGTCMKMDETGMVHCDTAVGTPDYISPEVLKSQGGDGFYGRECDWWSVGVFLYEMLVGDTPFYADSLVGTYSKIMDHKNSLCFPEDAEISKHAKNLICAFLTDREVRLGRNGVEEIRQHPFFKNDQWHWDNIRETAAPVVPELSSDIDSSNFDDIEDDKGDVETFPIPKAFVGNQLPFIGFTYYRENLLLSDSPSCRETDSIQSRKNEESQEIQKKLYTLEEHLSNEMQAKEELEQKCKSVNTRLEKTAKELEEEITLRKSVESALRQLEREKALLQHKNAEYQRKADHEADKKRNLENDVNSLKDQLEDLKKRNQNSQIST

For orientation: Ki means a dissociation constant, usually derived from enzyme kinetics or from competition with a known ligand. A higher Ki goes with a looser hold on the target. With `O=C1OC(c2ccc(Cl)c([N+](=O)[O-])c2)=N/C1=C\c1cccnc1` [DI, (4Z)-2-(4-chloro-3-nitrophenyl)-4-(pyridin-3-ylmethylidene)-1,3-oxazol-5-one], the inhibitory constant (Ki) turned out to be 132 nM.
